Measurements reported in patent US20240262835A1, “PRMT5 INHIBITING COMPOUNDS AND USES THEREOF” (ANTENGENE DISCOVERY LIMITED, priority 2023, published 2024).

How the values were obtained:
[1] = Liver microsome metabolic stability (LMS) assay, mouse
[2] = In vivo pharmacokinetics assay in mice via IV and PO; design: species or system ICR mice
Procedure: Pharmacokinetics assay for test compounds was performed in mice via IV and PO.
Test compound solution was prepared on the day of administration.
Solvent: IV+PO: 5% DMSO+10% Soultol+85% H2O or saline
Species: ICR mice; SPF level.
Source: Beijing Vital River Laboratory Animal Technology Co., Ltd.
Animal selection: Males. No random grouping
Weighed before dosing, calculated dosage according to body weight. For Groups 1-3, the drug was administered intravenously or intragastrically. For Group 4, the drug administered intragastrically.
For Groups 1-3, at 0.083 h, 0.25 h, 0.5 h, 1 h, 2 h, 4 h, 6 h, 8 h, 24 h, after administration. For Group 4, at 2 h and 4 h after administration.
Blood was collected through the cheeks. For each sample, about 0.05 mL of blood was collected and was added heparin sodium or EDTA-2K as anticoagulant, and was placed on wet ice.
The blood samples were collected and placed on ice and was centrifuged within 1 hour (centrifugation: 6000 g, 3 minutes, 2-8° C.) to separate plasma. Plasma samples were stored in a −80° C. refrigerator prior to analysis.
The pharmacokinetic parameters were calculated using Phoenix WinNonlin8.2.0 based on the blood concentration data at different time points, and AUC0-t, AUC0-∞, MRT0-∞, Cmax, Tmax, and T1/2 and mean values and standard deviations thereof were provided.

[3] = system: HCT116 parental (wild type) cells; assay: HCT116 cell proliferation assay (CTG), parental cells; assay type: cell-based, human; settings: Homo sapiens, HCT-116, 6 days treatment, Cell Titer-Glo
Procedure: Control samples were analyzed in parallel.
On Day 0, 150 HCT116 parental or HCT116 homozygous MTAP knockout cells were seeded in 96-well plates in McCoy's 5A medium containing 10% fetal bovine serum and pen/strep. And the cells were incubated overnight at 37° C. and 5% CO2.
On Day 1, cells were treated with 9-point serial dilution of compound, using a top concentration of 50 μM, 1:5 serial dilution steps and, a DMSO-only control. And cells were incubated for 6 days.
On Day 7, cell viability was measured using a CTG assay Kit (Cell Titer-Glo; Promega, catalog no.: G7573) in accordance with the manufacturer's instructions. Assays plates were read on a EnVision™ Multilabel Reader using the Ultra-Sensitive luminescence model. The data were analyzed by GraphPad Prism 5.0 software, and the dose-effect curve was obtained by fitting the data using nonlinear S-curve regression, from which the IC50 value was calculated.

[4] = target: hERG potassium ion channel (Homo sapiens (Human), UniProt Q12809); assay: hERG potassium ion channel inhibition assay (automated patch-clamp, CHO-hERG cells); assay type: cell-based; settings: Qpatch, highest test concentration 40.00 μM
Chain of hERG potassium ion channel (Q12809 whole entry): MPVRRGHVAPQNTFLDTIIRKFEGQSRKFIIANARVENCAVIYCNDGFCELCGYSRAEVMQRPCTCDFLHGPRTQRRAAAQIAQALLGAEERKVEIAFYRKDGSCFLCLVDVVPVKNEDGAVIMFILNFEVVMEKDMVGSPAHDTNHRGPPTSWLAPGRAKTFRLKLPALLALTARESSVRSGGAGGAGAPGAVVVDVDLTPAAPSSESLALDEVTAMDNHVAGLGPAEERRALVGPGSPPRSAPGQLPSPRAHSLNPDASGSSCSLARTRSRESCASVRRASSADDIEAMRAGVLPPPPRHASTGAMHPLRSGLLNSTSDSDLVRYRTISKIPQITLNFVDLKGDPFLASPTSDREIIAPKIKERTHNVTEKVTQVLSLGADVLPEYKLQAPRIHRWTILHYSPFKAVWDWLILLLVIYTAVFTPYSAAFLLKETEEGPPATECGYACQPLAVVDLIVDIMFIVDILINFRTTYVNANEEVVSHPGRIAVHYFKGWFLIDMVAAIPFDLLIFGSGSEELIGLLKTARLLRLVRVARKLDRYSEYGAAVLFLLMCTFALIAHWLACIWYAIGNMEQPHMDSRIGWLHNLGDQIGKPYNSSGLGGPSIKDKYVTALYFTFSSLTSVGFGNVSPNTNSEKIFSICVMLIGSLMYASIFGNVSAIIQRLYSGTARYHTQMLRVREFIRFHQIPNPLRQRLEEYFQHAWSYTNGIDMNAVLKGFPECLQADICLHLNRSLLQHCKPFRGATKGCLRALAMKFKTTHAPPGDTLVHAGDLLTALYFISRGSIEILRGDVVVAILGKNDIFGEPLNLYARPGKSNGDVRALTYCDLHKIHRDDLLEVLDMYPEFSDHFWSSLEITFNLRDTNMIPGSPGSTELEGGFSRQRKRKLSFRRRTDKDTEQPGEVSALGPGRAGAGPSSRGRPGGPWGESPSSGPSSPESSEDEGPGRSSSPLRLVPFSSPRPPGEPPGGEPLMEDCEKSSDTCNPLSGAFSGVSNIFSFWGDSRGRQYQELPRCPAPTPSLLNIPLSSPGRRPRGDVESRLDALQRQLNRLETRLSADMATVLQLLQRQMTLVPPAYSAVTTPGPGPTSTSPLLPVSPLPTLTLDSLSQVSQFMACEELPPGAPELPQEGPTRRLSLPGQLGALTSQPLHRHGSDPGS
Procedure: Drug-hERG interaction was measured by automated patch-clamp methods, with cisapride as positive control.
1.1 CHO-hERG cells were cultured in 175 cm^2 culture bottle. After the cell density grew to 60-80%, the culture medium was removed, washed with 7 mL of phosphate buffered saline (PBS), and then digested with 3 mL Detachin.
1.2 After the digestion was complete, 7 mL culture solution was added for neutralization, and then centrifuged, the clear solution was sucked, and 5 mL culture solution was added for re-suspension to ensure the cell density was 2˜5×10^6/mL.
The process of single-cell high-impedance sealing and whole-cell pattern formation was all automatically completed by Qpatch instrument. After obtaining whole-cell recording mode, the cell was pinching at −80 millivolts. Before giving a 5-second +40 millivolt depolarization stimulus, a 50-millisecond pre-voltage of −50 millivolts was given first, and then repolarized to −50 millivolts for 5 seconds. Go back to −80 millivolts. This voltage stimulation was applied every 15 seconds, recorded for 2 minutes, then extracellular fluid was given and recorded for 5 minutes, and then the administration process began. The concentration of test compound was given from the lowest test concentration for 2.5 minutes per test concentration. After continuous administration of all concentrations, the positive control 3 μM cisapride was given. At least 2 cells were tested for each concentration (n≥2).
4.1 The compound mother liquor was diluted with DMSO, and 10 μL compound stock solution was added to 20 μL DMSO solution, which was continuously 3-fold diluted to 6 DMSO-concentrations.
4.2 4 μL of test compounds in 6 DMSO-concentrations were added to 396 μL extracellular solution and were 100-fold diluted to 6 intermediate concentrations. Then, 80 μL of test compounds in 6 intermediate concentrations were added to 320 μL extracellular solution and were 5-fold diluted to the final concentration to be tested.
4.3 The highest test concentration was 40.00 μM, and six test concentrations were 40.00, 13.33, 4.44, 1.48, 0.49, 0.16 μM, respectively.
4.5 Entire dilution process for test compound preparation was performed by Bravo instrument.
The experimental data were analyzed by GraphPad Prism 5.0 software.

[5] = microsomes
[6] = microsomes; remark: listed apart in the source
[7] = system: cryopreserved hepatocytes; assay: Hepatic metabolic stability (HMS) assay, human hepatocytes
Procedure: 1) 10 mM test compounds were provided.
(§1) 2) 30 mM positive control stock solutions: Dissolved accurate amount of positive control compounds in dimethyl sulfoxide (DMSO).
(§2) 3) 1000× Stock Solution: Diluted 10 mM test compounds and 30 mM positive control compounds to 1 mM and 3 mM with DMSO in 96-well plates.
(§3) 4) 100× Dosing Solution: Diluted 1 mM test compounds and 3 mM positive control compounds to 100 μM and 300 μM dosing solutions with ACN.
(§4) 5) Preparation of 0.5×10^6/mL cells suspension: cryopreserved cells were thawed, isolated and suspended in Incubation Medium, then diluted with pre-warmed Incubation Medium to 0.5×10^6 cells/mL.
(§5) 6) Add 198 μL of pre-warmed cell suspensions in 96-well plates.
(§6) 7) Preparation of Quenching Plate: Transfer 125 μL of stop solution in a set of pre-labeled 96-well plates.
(§7) 8) Spike 2 μL dosing solution to each well of 96-well plates in duplicate.
(§8) 9) For TO Samples, mix to achieve a homogenous suspension for about 1 min, then immediately transfer 25 μL of each sample into well containing 125 μL of ice-cold stop solution followed by mixing.
(§9) 10) Incubate all plates at 37° C. in a 95% humidified incubator at 5% CO2 to start the reactions with constant shaking.
(§10) 11) At 15, 30, 60 and 90 min, mix samples and then transfer 25 μL of each sample at each time point to well containing 125 μL of ice-cold stop solution followed by mixing.
(§11) 12) Medium Control (MC) sample plates (labeled as TO-MC and T90-MC) are prepared in the same way as cell incubation except that medium was used instead of cell suspension.
(§12) 13) At each corresponding time point, stop the reactions by removing the plates from incubator and mixing with 125 μL of ice-cold stop solution.
(§13) 14) Vortex the plates immediately on a plate shaker at 600 rpm for 10 minutes. Then, centrifuge all sample plates at 3220×g for 20 min at 4° C.
(§14) 15) After centrifugation, 80 μL/well of supernatant in the sample plates are transferred to another set of pre-labeled 96-well plates which containing 240 μL of ultra pure water according to the plate map.
(§15) 16) Analytical plates are sealed and store at 4° C. until LC-MS/MS analysis.
(§16) The remaining percents of test articles after incubation were calculated by the follow equations:
(§17) Use the following equation of first order kinetics to calculate T1/2 and CLint:

[8] = system: cryopreserved hepatocytes; assay: Hepatic metabolic stability (HMS) assay, mouse hepatocytes
Procedure: 1) 10 mM test compounds were provided.
as §1, §2, §3, §4, §5, §6, §7, §8, §9, §10, §11, §12, §13, §14, §15, §16, §17

[9] = system: cryopreserved hepatocytes; assay: Hepatic metabolic stability (HMS) assay, dog hepatocytes
[10] = system: cryopreserved hepatocytes; assay: Hepatic metabolic stability (HMS) assay, rat hepatocytes
[11] = microsomes; remark: listed apart in the source
[12] = microsomes; remark: listed apart in the source

CN(C(=O)c1ccc2nc(N)c3cncn3c2c1)[C@@H]1COc2cc(C(F)(F)F)ccc21 [Compound 12]
half-life at 1 μM ([1]; mouse, liver microsomes): 1.14 h
clearance ([2]; male, ICR, mouse, plasma, IV 1.0 mg/kg): 3.48 mL/min/kg
IC50 [3]: 5.16 µM
IC50 [4]: 5.38 µM

CN(C(=O)c1cc2c(cn1)nc(N)c1cncn12)C1COc2cc(C(F)(F)F)ccc21 (centres unmarked) [Compound 21]
CLint (mic) D ([5]; dog): <9.6 µL/min/mg
T1/2 of LMS, D ([5]; dog): >2.42 h
CLint (liver) D [5]: <13.8 mL/min/kg
CLint (mic) C ([6]; cynomolgus monkey): <9.6 µL/min/mg
T1/2 of LMS, C ([6]; cynomolgus monkey): >2.42 h
CLint (liver) C [6]: <13.0 mL/min/kg
T1/2 of LMS, M ([1]; mouse liver microsome 0.5 mg protein/mL, 1 μM, NADPH): 1.82 h
T1/2 (hepatocytes) H ([7]; human hepatocytes, 1 μM test compound (3 μM positive control)): >3.613 h
CLint (liver) H ([7]; human hepatocytes, scaled to liver): <17.8 mL/min/kg
CLint (hep) H ([7]; human, hepatocytes): <6.4 μL/min/10^6
T1/2 (hepatocytes) M ([8]; mouse hepatocytes, 1 μM test compound (3 μM positive control)): 2.582 h
CLint (liver) M ([8]; mouse hepatocytes, scaled to liver): 106.3 mL/min/kg
CLint (hep) M ([8]; mouse, hepatocytes): 8.9 μL/min/10^6
T1/2 (hepatocytes) D ([9]; dog hepatocytes, 1 μM test compound (3 μM positive control)): >3.613 h
CLint (liver) D ([9]; dog hepatocytes, scaled to liver): <44 mL/min/kg
CLint (hep) D ([9]; dog, hepatocytes): <6.4 μL/min/10^6
Cl ([2]; IV 1.0 mg/kg): 3.94 mL/min/kg
AUC0-t ([2]; PO 10 mg/kg): 43397 ng·h/mL
T1/2 ([2]; PO 10 mg/kg): 6.67 h
C8 h ([2]; PO 10 mg/kg, plasma): 2537 ng/mL
C24 h ([2]; PO 10 mg/kg, plasma): 415 ng/mL
Cmax ([2]; PO 10 mg/kg, plasma): 2820 ng/mL
AUC0-t ([2]; PO 30 mg/kg): 124997 ng·h/mL
T1/2 ([2]; PO 30 mg/kg): 6.45 h
C8 h ([2]; PO 30 mg/kg, plasma): 6880 ng/mL
C24 h ([2]; PO 30 mg/kg, plasma): 1257 ng/mL
Cmax ([2]; PO 30 mg/kg, plasma): 8710 ng/mL
T1/2 (hepatocytes) R ([10]; rat hepatocytes, 1 μM test compound (3 μM positive control)): 2.983 h
CLint (liver) R ([10]; rat hepatocytes, scaled to liver): 36.2 mL/min/kg
CLint (hep) R ([10]; rat, hepatocytes): 7.7 μL/min/10^6
CLint (mic) H ([11]; human): <9.6 µL/min/mg
T1/2 of LMS, H ([11]; human): >2.42 h
CLint (liver) H [11]: <8.6 mL/min/kg
CLint (liver) R [12]: <17.3 mL/min/kg
CLint (mic) R ([12]; rat): <9.6 µL/min/mg
T1/2 of LMS, R ([12]; rat): >2.42 h
IC50 [4]: 13.6 µM
